In US12637435B2, “Nitrogen-containing heterocyclic compound or salt thereof, use thereof, and intermediate thereof” (FUJIFILM Corporation, priority 2020, dated 2026):
pIC50: −log10 of the molar value.

Columns and labels:
[1] = target: T1, recombinant human DHODH (Homo sapiens, UniProt Q02127); assay: DHODH enzyme reaction inhibition test (DCIP-coupled assay); type: biochemical; conditions: recombinant human DHODH 0.175 μg/mL, DCIP absorbance 600 nm, 50 minutes, pH 8.0; read-out: Enzyme reaction inhibitory effect (IC50)
T1 construct: DHODH, 31-395aa, Human, His tag, E. coli, ATGP1615; His tag; purchased ATGen Co. Ltd. ATGP1615; host or cells: E. coli
T1 sequence (Q02127 31-395): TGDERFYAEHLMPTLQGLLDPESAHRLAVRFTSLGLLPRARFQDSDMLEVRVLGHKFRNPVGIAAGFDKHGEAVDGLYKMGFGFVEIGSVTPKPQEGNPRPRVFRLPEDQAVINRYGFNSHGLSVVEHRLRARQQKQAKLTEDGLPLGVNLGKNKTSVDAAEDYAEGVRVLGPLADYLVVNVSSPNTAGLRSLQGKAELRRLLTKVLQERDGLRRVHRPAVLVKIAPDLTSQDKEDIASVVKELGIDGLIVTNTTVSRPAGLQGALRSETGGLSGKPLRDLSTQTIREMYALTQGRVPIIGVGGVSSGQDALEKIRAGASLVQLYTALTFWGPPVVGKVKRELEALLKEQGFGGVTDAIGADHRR
Method: The DHODH enzyme assay was carried out with reference to “Benjamin Bader, Wolfgang Knecht, Markus Fries, and Monika Loffler, Expression, Purification, and Characterization of Histidine-Tagged Rat and Human Flavoenzyme Dihydroorotate Dehydrogenase, Protein Expression and Purification, 1998, 13, 414-422.”
The DHODH activity was evaluated using an enzyme assay system that is coupled with an assay in which a blue coloring agent 2,6-dichlorophenolindophenol (DCIP, available from MP Biomedicals, LLC, MP150118) is quenched. Purified recombinant human DHODH (DHODH, 31-395aa, Human, His tag, E. coli, ATGP1615) was purchased from ATGen Co. Ltd. The enzyme assay was carried out in a 384-well plate using a buffer solution containing 100 mmol/L Hepes (available from Dojindo Laboratories, 342-01375), 400 mmol/L NaCl (available from FUJIFILM Wako Pure Chemical Corporation, 191-01665), 10% Glycerol (available from FUJIFILM Wako Pure Chemical Corporation, 075-00616), 0.05% Triton X-100 (available from Sigma-Aldrich Co., LLC, T8787-100ML), 0.2 mmol/L Ubiquinone-10 (available from FUJIFILM Wako Pure Chemical Corporation, 216-00761), 0.1 mmol/L DHO (L-dihydroorotic acid, available from Sigma-Aldrich Co., LLC, D7128), 0.5% DMSO (dimethylsulfoxide, available from FUJIFILM Wako Pure Chemical Corporation, 047-29353), 0.175 μg/mL DHODH, and 0.12 mmol/L DCIP and having a pH adjusted to 8.0 by adding 5 mol/L potassium hydroxide (available from FUJIFILM Wako Pure Chemical Corporation, 168-21815). A test compound with a predetermined concentration was added using Biomek NX (available from Beckman Coulter Inc.), and the enzyme reaction was started by adding the substrate. The enzyme activity was assessed by measuring the decrease in DCIP absorbance (600 nm) for 50 minutes using an EnVision plate-reading spectrophotometer (available from PerkinElmer, Inc.).
The enzyme reaction inhibition rate at each test compound concentration was determined, and the 50% enzyme reaction inhibition concentration [IC50 (nmol/L)] was calculated using XLfit. Enzyme reaction inhibition rate (%)=(amount of luminescence in test compound-added well)/(amount of luminescence in DMSO-added well)×100
The abbreviations in the table have the following meanings. • A: IC50 value<10 nmol/L • B: 10 nmol/L≤IC50 value<100 nmol/L • C: 100 nmol/L≤IC50 value

[2] = system: human myeloid leukemia cell line HL60; assay: Cell growth test, HL60 (CellTiter-Glo); type: cell-based; conditions: HL-60, 72 h, HL60 cells, 3 days, CellTiter-Glo luminescence, read-out: Cell growth inhibitory effect (GI50)
Method: The cell growth test was carried out using the human myeloid leukemia cell line HL60 (available from ATCC, CRL-240). As a culture medium of HL60 cells, RPMI 1640 (available from FUJIFILM Wako Pure Chemical Corporation, 189-02025) supplemented with 10% fetal bovine serum (available from Thermo Fisher Scientific, Inc., 10437-028), and 1% penicillin-streptomycin (10,000 U/mL, available from Thermo Fisher Scientific, Inc., 15140-122) was used. HL60 cells were seeded on a 384-well plate (available from Corning Inc., 4588) at a cell density of 1×10^3 cells/20 μL/well. After culturing overnight, 5 μL of the test compound having a predetermined concentration was added, and 3 days later, 25 μL of CellTiter-Glo (registered trademark) Luminescent Cell Viability Assay (available from Promega Corporation, G7573) was added, and then the amount of luminescence was measured using an EnVision plate reader (available from PerkinElmer, Inc.). Since the amount of luminescence is proportional to the intracellular concentration of adenosine triphosphate (ATP), the amount of luminescence was used as an indicator of the number of viable cells. The growth inhibitory concentration for each test compound concentration was calculated by the following expression.
The growth inhibition rate at each test compound concentration was determined, and the 50% growth inhibitory concentration [GI50 (nmol/L)] was calculated using XLfit. Growth inhibition rate (%)=(amount of luminescence in test compound-added well)/(amount of luminescence in DMSO-added well)×100
The abbreviations in the table have the following meanings. • A: GI50 value<100 nmol/L • B: 100 nmol/L≤GI50 value<1,000 nmol/L • C: 1,000 nmol/L≤GI50 value

[3] = system: HL60 subcutaneous tumor; assay: In vivo drug efficacy test in cancer-bearing mouse model with subcutaneous transplantation of HL60; conditions: HL60 subcutaneous xenograft, female NOD/scid mice, oral 2.5 to 10 mg/kg once a day for 10 to 12 days
Excerpt: (Drug Efficacy Test in Cancer-Bearing Mouse Model with Subcutaneous Transplantation of HL60)
The human acute myeloid leukemia cell line HL60 (available from JCRB) was suspended in a mixture of RPMI-1640 culture medium and Matrigel (available from Corning Inc.), and then subcutaneously transplanted into 6-week-old female NOD/scid mice (available from CLEA Japan, Inc.). The test compound was dispersed in a solvent (0.5% aqueous methylcellulose solution), and from the time when tumor engraftment was visually confirmed, the test compound was orally administered to mice at a dose of 2.5 to 10 mg/kg once a day for 10 to 12 days. A solvent administration group to which a 0.5% aqueous methylcellulose solution was administered was provided as a negative control. The tumor diameter was measured over time and the tumor volume was calculated. The tumor volume was calculated by measuring the major axis and the minor axis of the tumor and using the following expression. Tumor volume (mm^3)=[major axis (mm)×minor axis (mm)×minor axis (mm)]/2
T/C (%) was calculated from the average tumor volume of each group by the following expression, and the drug efficacy was evaluated. T/C (%)=(average tumor volume of drug-administered group)/(average tumor volume of solvent-administered group)×100%

pIC50 [1] | GI50 [2] | Structure (SMILES) | tumor growth inhibition rate (T/C from tumor volume) [3]
> 8.00 | < 100 nM | CS(=O)(=O)NC(=O)c1nc(C2CC2)cnc1Nc1cccc(C2CCOCC2)c1OCC(F)(F)F [Example 3-30] | excellent tumor growth inhibition rate
> 8.00 | < 100 nM | N#Cc1ccc(-c2cccc(Nc3ncc(C4CC4)nc3C(=O)NS(N)(=O)=O)c2OCC(F)(F)F)cc1 [Example 3-41] | excellent tumor growth inhibition rate
7.00 to 8.00 | ≥ 1000 nM | C[C@H](Oc1c(Nc2nnc(C3CC3)cc2C(=O)NS(C)(=O)=O)cccc1C1CCOCC1)C(F)(F)F [Example 3-63] | 
> 8.00 | < 100 nM | CS(=O)(=O)NC(=O)c1cc(C2CC2)cnc1Nc1cccc(-c2ccc(C#N)cc2)c1OCC(F)(F)F [Example 3-36] | 
> 8.00 | 100 to 1000 nM | CCc1c(Nc2ncc(C3CC3)cc2C(=O)NS(C)(=O)=O)cccc1C1CCOCC1 [Example 3-47] | 
7.00 to 8.00 | 100 to 1000 nM | C[C@H](Oc1c(Nc2ncc(C3CC3)nc2C(=O)NS(C)(=O)=O)cccc1C1=CCCOC1)C(F)(F)F [Example 3-62] | 
> 8.00 | < 100 nM | CS(=O)(=O)NC(=O)c1nc(C2CC2)cnc1Nc1cccc(-c2ccc(C#N)cc2)c1OCC(F)(F)F [Example 3-23] | 
> 8.00 | < 100 nM | C[C@H](Oc1c(Nc2ncc(C3CC3)nc2C(=O)NS(C)(=O)=O)cccc1C1=CCOCC1)C(F)(F)F [Example 3-32] | 
> 8.00 | 100 to 1000 nM | CS(=O)(=O)NC(=O)c1nc(C2CC2)cnc1Nc1cccc(-c2ccc(C#N)cc2)c1OC(F)F [Example 3-51] | 
7.00 to 8.00 | ≥ 1000 nM | CCOc1c(C2=CCOCC2)ccc(F)c1Nc1ncc(C2CC2)cc1C(=O)NS(C)(=O)=O [Example 3-59] | 
7.00 to 8.00 | 100 to 1000 nM | CS(=O)(=O)NC(=O)c1nc(C2CC2)cnc1Nc1cc(F)cc(-c2ccc(C#N)cc2)c1OC(F)F [Example 3-55] | 

More lines, now with the values behind:

Structure (SMILES) | pIC50 [1] | GI50 [2] | tumor growth inhibition rate (T/C from tumor volume) [3]
NC(=O)c1nc(C2CC2)cnc1Nc1cccc(C2=CCOCC2)c1OCC(F)(F)F [Example 1-1, 6-cyclopropyl-3-((3-(3,6-dihydro-2H-pyran-4-yl)-2-(2,2,2-trifluoroethoxy)phenyl)amino)pyrazine-2-carboxamide] | 7.00 to 8.00 | < 100 nM | 
CCOc1c(Nc2ncc(C3CC3)cc2C(=O)O)ccc(F)c1C1=CCOCC1 [Example 2-15] | > 8.00 | < 100 nM | 
O=C(O)c1cc(C2CC2)cnc1Nc1cc(F)cc(C2CCOCC2)c1OCC(F)(F)F [Example 2-8] | > 8.00 | < 100 nM | 
Cc1cc(C#N)ccc1-c1cccc(Nc2ncc(C3CC3)nc2C(=O)O)c1OCC(F)(F)F [Example 1-5, 3-((4′-cyano-2′-methyl-2-(2,2,2-trifluoroethoxy)-[1,1′-biphenyl]-3-yl)amino)-6-cyclopropylpyrazine-2-carboxylic acid] | > 8.00 | < 100 nM | 
CS(=O)(=O)NC(=O)c1nc(C2CC2)cnc1Nc1cccc(C2=CCOCC2)c1OCC(F)(F)F [Example 1-2, 6-cyclopropyl-3-((3-(3,6-dihydro-2H-pyran-4-yl)-2-(2,2,2-trifluoroethoxy)phenyl)amino)-N-(methylsulfonyl)pyrazine-2-carboxamide] | > 8.00 | < 100 nM | excellent tumor growth inhibition rate
O=C(O)c1cc(C2CC2)ccc1Nc1cncc(C2=CCOCC2)c1OCC(F)(F)F [Example 2-1] | > 8.00 | 100 to 1000 nM | 
